Data: patent US7939275B2, “Methods for detection of chlamydia in samples” (priority 2005, dated 2011)
Like-named read-outs stand apart in the source and are kept apart here.

What was measured:
anti-Chlamydia abzymes [1] = type: biochemical, human
Procedure: (§1) For chemical inactivation, a diluent solution was divided into two portions. In one portion, an abzyme inhibitor was added. The following abzyme inhibitors were used DMSO, 0.1-10%; sodium azide, 10^−5-10^−3M; catechins, 10^−6-10^−3M; ketek, […]; lactobacilli culture, 1 μM-1 mM; ascorbic acid, 10^−4-10^−3M; acetyl salicylic acid, 10^−4-10^−3M.
(§2) The serum sample was split in two aliquots and one aliquot was diluted by solution containing the abzyme inhibitor, the second aliquot was diluted by the control solution. The aliquots were then tested in the same fashion.
Lipid peroxidation was assessed as a level of MDA concentration which was measured by spectrophotometric method [Draper, H. H. et al Free Radic. Biol. Med. (1993) 15, 353]. This method is based on the formation of a coloured product when malondialdehyde reacts with thiobarbituric acid. Briefly, the level of abzymes in a sample was determined as follows: Samples of sera were diluted 1:1 by 0.05M acetate buffer pH 4.0 to make the final pH of these samples between 5.6-5.8. 990 μl of the diluted serum was mixed with 10 μl of the commercial live ovine Chlamydia vaccine (Intervet). Samples were incubated overnight (12-16 hours) at 37° C. 250 μl of 40% trichloroacetic acid and 250 μl of 1 mM 2-thiobarbituric acid was added to each sample. All samples were placed in a water bath and boiled for 30 minutes. Samples were cooled down and centrifuged at 3,000 g for 10 minutes. The supernatants were collected and their absorption measured at λ 525 nm to determine the concentration of malondialdehydes (MDA), which are products of lipid peroxidation.

anti-Chlamydia abzymes [2] = type: biochemical, human; remark: listed apart in the source
Procedure: as §1, §2
ELISA assays were performed using Medac materials and reagents, which were used in accordance with the manufacturers instructions.
Briefly, serum samples from patients were treated as described above. 50 μl of sample diluent was pipetted into microtitre well Al as blank, and 50 μl of the negative control, Positive Control and the diluted patients' samples were pipetted into other microtitre wells. The microplate wells were incubated for 60 min (±5 min) at 37° C. (±1° C.) in a humid chamber and then washed three times with 200 μl wash buffer per well. 50 μl of Conjugate was then added to each well and the microplate wells incubated again for 60 min (±5 min) at 37° C. (±1° C.) in a humid chamber and then washed. 50 μl of TMB-Substrate, was added to each well and the microplate wells incubated for 30 min (±2 min) at 37° C. (±1° C.) in a humid chamber. The reaction was stopped by adding 100 μl of Stop Solution, to each well.
Photometric reading was performed using a plate reader at 450 nm (ref. 620-650 nm) within 15 min after adding the Stop Solution.
To calculate the results, the OD value of the blank (well A1) was subtracted from all other OD values. […] Cut-off=mean OD value of the Negative Control+0.380. Grey zone=Cut-off±10%

[3] = patient serum, abzyme inhibitor added to diluent

Compound	Inhibition of abzymes ability to cause: Serum lipid peroxidation, in MDA assay (anti-Chlamydia abzymes [1]; [3])	Inhibition of abzymes ability to cause: Damage of Chlamydia pneumoniae antigen, in ELISA (anti-Chlamydia abzymes [2]; [3])	Inhibition of abzymes ability to cause: Serum lipid peroxidation, in MDA assay (anti-Chlamydia abzymes [1])	Inhibition of abzymes ability to cause: Damage of Chlamydia pneumoniae antigen, in ELISA (anti-Chlamydia abzymes [2])
CC[C@H]1OC(=O)[C@H](C)C(=O)[C@H](C)[C@@H](O[C@@H]2O[C@H](C)C[C@H](N(C)C)[C@H]2O)[C@](C)(OC)C[C@@H](C)C(=O)[C@H](C)[C@H]2N(CCCCn3cnc(-c4cccnc4)c3)C(=O)O[C@]12C [Telithromycin, Ketek, Telithromycin]	Positive	Positive	–	–
CC(=O)Oc1ccccc1C(=O)O [Acetyl salicylic acid]	–	–	Positive	Positive
Cc1c(O)cc2c(c1C)O[C@](C)(CCC[C@H](C)CCC[C@H](C)CCCC(C)C)CC2 [(+) y-Tocopherol]	–	–	Negative	Negative
C[S+](C)[O-] [DMSO]	Positive	Positive	–	–
O=C(O)CN(CCN(CC(=O)O)CC(=O)O)CC(=O)O [EDTA]	–	–	Positive	Positive
O=C(O)c1ccccc1 [Benzoic acid]	–	–	Negative	Negative
(+) Catechin gallate	Positive	Positive	–	–
Haemoglobin	–	–	Positive	Positive
OC[C@@H](O)[C@@H](O)[C@H](O)[C@H](O)CO [D-Mannitol]	Negative	Negative	–	–
PMS	–	–	Negative	Negative
O=C(O)CN(CCOCCOCCN(CC(=O)O)CC(=O)O)CC(=O)O [EGTA]	–	Positive	–	–
Cc1c(C)c2c(c(C)c1O)CC[C@@](C)(CCC[C@H](C)CCC[C@H](C)CCCC(C)C)O2 [(+) α-Tocopherol]	Negative	Negative	–	–
O=C1O[C@H]([C@@H](O)CO)C(O)=C1O [Ascorbic acid]	Positive	Positive	–	–
CC1=C(/C=C/C(C)=C/C=C/C(C)=C/C=C/C=C(C)/C=C/C=C(C)/C=C/C2=C(C)CCCC2(C)C)C(C)(C)CCC1 [β-Carotene]	–	–	Negative	Negative
CC(C)=CCC/C(C)=C/C=C/C(C)=C/C=C/C(C)=C/C=C/C=C(C)/C=C/C=C(C)/C=C/C=C(\C)CCC=C(C)C [Lycopene]	Negative	Negative	–	–
